Data published in publication PMC4527713, “An IPTG Inducible Conditional Expression System for Mycobacteria” (PLoS ONE, 2015).

Target: T1, RpoB (β subunit of RNA polymerase) (Mycolicibacterium smegmatis, UniProt P60281)
T1 construct: with RNA polymerase (multimeric enzyme)
T1 sequence (P60281 1-1169): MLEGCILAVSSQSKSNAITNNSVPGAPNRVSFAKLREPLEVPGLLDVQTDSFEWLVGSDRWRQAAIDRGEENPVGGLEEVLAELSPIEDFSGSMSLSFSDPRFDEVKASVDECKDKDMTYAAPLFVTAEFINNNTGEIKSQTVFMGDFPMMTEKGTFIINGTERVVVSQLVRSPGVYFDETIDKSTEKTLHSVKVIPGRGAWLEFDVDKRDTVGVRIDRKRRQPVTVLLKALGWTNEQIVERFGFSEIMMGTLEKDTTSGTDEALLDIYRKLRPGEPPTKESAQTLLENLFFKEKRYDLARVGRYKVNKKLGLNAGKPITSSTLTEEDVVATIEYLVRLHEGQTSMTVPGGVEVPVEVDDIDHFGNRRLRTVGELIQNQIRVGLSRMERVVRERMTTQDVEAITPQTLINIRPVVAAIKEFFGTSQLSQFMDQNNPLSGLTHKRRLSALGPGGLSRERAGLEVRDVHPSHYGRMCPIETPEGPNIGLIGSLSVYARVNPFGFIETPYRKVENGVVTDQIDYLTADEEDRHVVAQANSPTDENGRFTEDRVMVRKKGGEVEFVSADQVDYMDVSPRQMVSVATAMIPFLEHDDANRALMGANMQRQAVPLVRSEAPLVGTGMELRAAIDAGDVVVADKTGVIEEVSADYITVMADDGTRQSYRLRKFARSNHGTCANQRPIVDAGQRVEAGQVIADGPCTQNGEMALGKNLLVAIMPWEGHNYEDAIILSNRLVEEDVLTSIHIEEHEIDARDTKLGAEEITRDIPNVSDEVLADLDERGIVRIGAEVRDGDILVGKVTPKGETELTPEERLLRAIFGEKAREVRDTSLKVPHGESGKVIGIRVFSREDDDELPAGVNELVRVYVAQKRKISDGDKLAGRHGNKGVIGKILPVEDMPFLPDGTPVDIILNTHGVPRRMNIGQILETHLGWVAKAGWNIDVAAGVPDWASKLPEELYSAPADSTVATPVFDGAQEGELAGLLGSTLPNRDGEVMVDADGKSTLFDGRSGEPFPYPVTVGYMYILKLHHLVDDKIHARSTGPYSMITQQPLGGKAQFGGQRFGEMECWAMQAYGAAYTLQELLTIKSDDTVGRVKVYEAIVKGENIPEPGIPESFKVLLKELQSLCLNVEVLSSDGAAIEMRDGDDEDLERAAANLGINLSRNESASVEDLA
Assay: MIC shift in rpoB knockdown strain ([…]; no shift in inhA knockdown); also reference inhibitor in the screens, IC50 not given
Assay type: cell-based

CO[C@H]1/C=C/O[C@@]2(C)Oc3c(C)c(O)c4c(O)c(c(/C=N/N5CCN(C)CC5)c(O)c4c3C2=O)NC(=O)/C(C)=C\C=C\[C@H](C)[C@H](O)[C@@H](C)[C@@H](O)[C@@H](C)[C@H](OC(C)=O)[C@@H]1C [rifampicin]
MIC shift in rpoB knockdown strain (8 to 0.5 μg/ml; no shift in inhA knockdown);: modulation in MIC of rifampicin and isoniazid are due to the reduction in the respective target protein levels
